In patent US8513423B2 (Janssen Pharmaceutica, NV, priority 2010, dated 2013):
Numbering of substitutions follows the chain as printed. Like-named read-outs stand apart in the source and are kept apart here.

How the values were obtained:
MGL = biological target: T1, MGL (Rattus norvegicus, UniProt Q8R431); experiment: 2-AG accumulation assay in rat brain homogenate; assay type: biochemical; settings: compound @1 μM, read-out: Rat Brain 2AG % VehCntrl (%) @1 μM
T1 construct: one g rat brain was homogenized; from tissue; host or cells: rat brain homogenate
T1 sequence (Q8R431 1-303): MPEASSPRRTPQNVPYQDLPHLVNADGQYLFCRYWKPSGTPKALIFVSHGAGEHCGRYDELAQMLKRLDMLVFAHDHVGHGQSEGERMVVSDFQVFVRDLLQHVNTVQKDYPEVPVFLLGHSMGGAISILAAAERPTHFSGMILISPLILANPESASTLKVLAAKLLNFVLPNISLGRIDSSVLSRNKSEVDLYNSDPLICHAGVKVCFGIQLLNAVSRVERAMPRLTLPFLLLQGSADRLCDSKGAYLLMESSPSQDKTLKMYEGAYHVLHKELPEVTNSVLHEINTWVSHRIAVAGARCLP
Description: After a 15-min incubation time at 37° C., CaCl2 (final concentration=10 mM) was added and then incubated for 15 min at 37° C. in a total volume of 5 mL. The reactions were stopped with 6 mL organic solvent extraction solution of 2:1 chloroform/methanol. Accumulated 2-AG in the organic phase was measured by a HPLC/MS method, according to the following equation: percent vehicle=(2-AG accumulation in the presence of compound/2-AG accumulation in vehicle)×100.

[1] = biological target: T2, purified wild type MGL (wt-MGLL 6H-11-313) (Homo sapiens, UniProt Q99685); experiment: MGL enzyme activity assay (4MU-B cleavage), wild type MGL; assay type: biochemical; settings: 10 μM 4MU-B, 5 nM enzyme, 37° C., read-out: MGL wild type inh IC50
T2 construct: purified wild type MGL (wt-MGLL 6H-11-313)
T2 sequence (Q99685 1-303): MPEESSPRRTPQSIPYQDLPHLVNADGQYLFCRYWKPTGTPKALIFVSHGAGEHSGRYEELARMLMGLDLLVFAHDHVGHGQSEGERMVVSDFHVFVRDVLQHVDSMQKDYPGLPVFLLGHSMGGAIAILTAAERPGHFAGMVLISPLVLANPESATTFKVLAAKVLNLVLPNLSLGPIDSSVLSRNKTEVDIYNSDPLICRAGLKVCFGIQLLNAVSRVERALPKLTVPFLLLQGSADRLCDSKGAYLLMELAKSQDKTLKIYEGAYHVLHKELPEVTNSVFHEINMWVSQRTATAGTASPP
Description: All rate-based assays were performed in black 384-well polypropylene PCR microplates (Abgene) in a total volume of 30 μL. Substrate 4-methylumbelliferyl butyrate (4MU-B; Sigma) and either purified mutant MGL (mut-MGLL 11-313 L179S L186S) or purified wild type MGL (wt-MGLL 6H-11-313) were diluted separately into 20 mM PIPES buffer (pH=7.0), containing 150 mM NaCl and 0.001% Tween 20. Compounds of Formula (I) were pre-dispensed (50 nL) into the assay plate using a Cartesian Hummingbird prior to adding 4MU-B (25 μL of 1.2× solution to a final concentration of 10 μM) followed by enzyme (5 μL of a 6× solution to a final concentration of 5 nM) to initiate the reaction. Final compound concentrations ranged from 17 to 0.0003 μM. The fluorescence change due to 4MU-B cleavage was monitored with excitation and emission wavelengths of 335 and 440 nm, respectively, and a bandwidth of 10 nm (Safire^2, Tecan) at 37° C. for 5 min.
The IC50 values for compounds of Formula (I) were determined using Excel from a fit of the equation to the concentration-response plot of the fractional activity as a function of inhibitor concentration.

mutant MGL = biological target: T3, mutant MGL (Homo sapiens, UniProt Q99685, L169S/L176S); experiment: MGL ThermoFluor assay - mutant; assay type: binding
T3 construct: purified mutant MGL (mut-MGLL 11-313 L179S L186S)
T3 sequence (Q99685 1-303 L169S/L176S): T2 sequence (Q99685 1-303) with L169S, L176S
Description: The ThermoFluor (TF) assay is a 384-well plate-based binding assay that measures thermal stability of proteins^1,2. The experiments were carried out using instruments available from Johnson & Johnson Pharmaceutical Research & Development, LLC. TF dye used in all experiments was 1,8-ANS (Invitrogen: A-47). Final TF assay conditions used for MGL studies were 0.07 mg/ml of mutant MGL, 100 μM ANS, 200 mM NaCl, 0.001% Tween-20 in 50 mM PIPES (pH=7.0).
Screening compound plates contained 100% DMSO compound solutions at a single concentration. For follow-up concentration-response studies, compounds were arranged in a pre-dispensed plate (Greiner Bio-one: 781280), wherein compounds were serially diluted in 100% DMSO across 11 columns within a series. Columns 12 and 24 were used as DMSO reference and contained no compound. For both single and multiple compound concentration-repsonse experiments, the compound aliquots (46 nL) were robotically predispensed directly into 384-well black assay plates (Abgene: TF-0384/k) using the Hummingbird liquid handler. Following compound dispension, protein and dye solutions were added to achieve the final assay volume of 3 μL. The assay solutions were overlayed with 1 μl of silicone oil (Fluka, type DC 200: 85411) to prevent evaporation.
Bar-coded assay plates were robotically loaded onto a thermostatically controlled PCR-type thermal block and then heated from 40 to 90° C. degrees at a ramp-rate of 1° C./min for all experiments. Fluorescence was measured by continuous illumination with UV light (Hamamatsu LC6), supplied via fiber optics and filtered through a band-pass filter (380-400 nm; >6 OD cutoff). Fluorescence emission of the entire 384-well plate was detected by measuring light intensity using a CCD camera (Sensys, Roper Scientific) filtered to detect 500±25 nm, resulting in simultaneous and independent readings of all 384 wells. A single image with 20-sec exposure time was collected at each temperature, and the sum of the pixel intensity in a given area of the assay plate was recorded vs temperature and fit to standard equations to yield the Tm^1. • 1. Pantoliano, M. W., Petrella, E. C., Kwasnoski, J. D., Lobanov, V. S., Myslik, J., Graf, E., Carver, T., Asel, E., Springer, B. A., Lane, P., and Salemme, F. R. (2001) J Biomol Screen 6, 429-40. • 2. Matulis, D., Kranz, J. K., Salemme, F. R., and Todd, M. J. (2005) Biochemistry 44, 5258-66.
The Kd values for compounds of Formula (I) were determined from a fit of the equation to the concentration-response plot of the fractional activity as a function of Tm. For some experiments, quantitative NMR spectroscopy (qNMR) was used to measure concentration of the initial 100% DMSO compound solutions and, using the same fitting method, qKd values were determined

[2] = 0.07 mg/ml mutant MGL, pH=7.0, read-out: MGL mutant ThermoFluor Kd
[3] = compound concentration measured by qNMR, read-out: MGL mutant ThermoFluor qKd (using qNMR conc.)

| SMILES | 2-AG accumulation, percent of vehicle control at 1 µM (MGL) | IC50 [1] | Kd (mutant MGL; [2]) | Kd (mutant MGL; [3]) |
| --- | --- | --- | --- | --- |
| O=C(c1ccc[nH]1)N1CCC(C2CN(C(=O)c3ccc(-c4ccccc4)cc3F)C2)CC1 [Cpd 21, 4-{1-[(3-Fluorobiphenyl-4-yl)carbonyl]azetidin-3-yl}-1-(1H-pyrrol-2-ylcarbonyl)piperidine] | 287% | 12.4 nM | 28.6 nM | – |
| O=C(c1ccc(Cc2ccc(C(F)(F)F)cc2)cc1)N1CC(C2CCN(C(=O)c3ccc[nH]3)CC2)C1 [Cpd 39, 1-(1H-Pyrrol-2-ylcarbonyl)-4-[1-({4-[4-(trifluoromethyl)benzyl]phenyl}carbonyl)azetidin-3-yl]piperidine] | 371% | < 5 nM | – | 48.9 nM |
| O=C(c1ccc2c(ccn2-c2ccc(F)c(F)c2)c1)N1CCC(C2CN(C(=O)c3ccc[nH]3)C2)CC1 [Cpd 80, 1-(3,4-Difluorophenyl)-5-({4-[1-(1H-pyrrol-2-ylcarbonyl)azetidin-3-yl]piperidin-1-yl}carbonyl)-1H-indole] | 860% | < 5 nM | – | 4.9 nM |
| O=C(c1ccc2c(c1)[nH]c(=O)n2-c1ccc(C(F)(F)F)cc1)N1CC(C2CCN(C(=O)c3nccs3)CC2)C1 [Cpd 99, 5-({3-[1-(1,3-Thiazol-2-ylcarbonyl)piperidin-4-yl]azetidin-1-yl}carbonyl)-1-[4-(trifluoromethyl)phenyl]-1,3-dihydro-2H-benzimidazol-2-one] | – | 17.3 nM | – | 16.7 nM |
| O=C(c1ccc2c(c1)ncn2CC(F)(F)F)N1CC(C2CCN(C(=O)c3nccs3)CC2)C1 [Cpd 84, 5-({3-[1-(1,3-Thiazol-2-ylcarbonyl)piperidin-4-yl]azetidin-1-yl}carbonyl)-1-(2,2,2-trifluoroethyl)-1H-benzimidazole] | – | 175 nM | – | 66.3 nM |
| Cc1nc2cc(C(=O)N3CC(C4CCN(C(=O)c5nccs5)CC4)C3)ccc2n1-c1ccc(C(F)(F)F)cc1 [Cpd 89, 2-Methyl-5-({3-[1-(1,3-thiazol-2-ylcarbonyl)piperidin-4-yl]azetidin-1-yl}carbonyl)-1-[4-(trifluoromethyl)phenyl]-1H-benzimidazole] | – | 34.1 nM | – | 7.7 nM |
| Cc1nc2cc(C(=O)N3CC(C4CCN(C(=O)c5nccs5)CC4)C3)ccc2n1CCC(F)(F)F [Cpd 91, 2-Methyl-5-({3-[1-(1,3-thiazol-2-ylcarbonyl)piperidin-4-yl]azetidin-l-yl}carbonyl)-1-(3,3,3-trifluoropropyl)-1H-benzimidazole] | – | 237 nM | – | 32.5 nM |
| O=C(c1cscn1)N1CCC(C2CN(C(=O)c3ccc(-c4ccccc4)cc3F)C2)CC1 [Cpd 9, 4-{1-[(3-Fluorobiphenyl-4-yl)carbonyl]azetidin-3-yl}-1-(1,3-thiazol-4-ylcarbonyl)piperidine] | – | 114 nM | 100 nM | – |
| O=C(c1cc[nH]c1)N1CCC(C2CN(C(=O)c3ccc(-c4ccccc4)cc3)C2)CC1 [Cpd 4, 4-[1-(Biphenyl-4-ylcarbonyl)azetidin-3-yl]-1-(1H-pyrrol-3-ylcarbonyl)piperidine] | – | 154 nM | 162 nM | – |
| O=C(c1cccc(-c2cccc(F)c2)c1)N1CC(C2CCN(C(=O)c3cscn3)CC2)C1 [Cpd 11, 4-{1-[(3′-Fluorobiphenyl-3-yl)carbonyl]azetidin-3-yl}-1-(1,3-thiazol-4-ylcarbonyl)piperidine] | – | 498 nM | 732 nM | – |
| O=C(c1cc2ccc(C(F)(F)F)cc2s1)N1CC(C2(O)CCN(C(=O)c3nccs3)CC2)C1 [Cpd 94, 1-(1,3-Thiazol-2-ylcarbonyl)-4-(1-{[6-(trifluoromethyl)-1-benzothiophen-2-yl]carbonyl}azetidin-3-yl)piperidin-4-ol] | – | 10 nM | – | 24.9 nM |
| Cc1nc2cc(C(=O)N3CC(C4CCN(C(=O)c5nccs5)CC4)C3)ccc2n1-c1ccc(F)c(F)c1 [Cpd 88, 1-(3,4-Difluorophenyl)-2-methyl-5-({3-[1-(1,3-thiazol-2-ylcarbonyl)piperidin-4-yl]azetidin-1-yl}carbonyl)-1H-benzimidazole] | – | 9.49 nM | – | 13.3 nM |
| O=C(c1ccc2c(ccn2-c2ccc(F)c(F)c2)c1)N1CCC(C2CN(C(=O)c3nccs3)C2)CC1 [Cpd 78, 1-(3,4-Difluorophenyl)-5-({4-[1-(1,3-thiazol-2-ylcarbonyl)azetidin-3-yl]piperidin-1-yl}carbonyl)-1H-indole] | – | < 5 nM | – | 2.3 nM |
| O=C(c1ccc2c(c1)ncn2-c1ccc(C(F)(F)F)cc1)N1CC(C2CCN(C(=O)c3nccs3)CC2)C1 [Cpd 83, 5-({30[1-(1,3-Thiazol-2-ylcarbonyl)piperidin-4-yl]azetidin-1-yl}carbonyl)-1-[4-(trifluoromethyl)phenyl]-1H-benzimidazole] | – | 9.16 nM | – | 13.6 nM |
| O=C(c1ccc(-c2ccccc2)cc1)N1CC(C2CCN(C(=O)c3cncs3)CC2)C1 [Cpd 5, 4-[1-(Biphenyl-4-ylcarbonyl)azetidin-3-yl]-1-(1,3-thiazol-5-ylcarbonyl)piperidine] | – | 87.6 nM | 64.1 nM | – |
| O=C(c1ccc2c(c1)[nH]c(=O)n2-c1ccc(F)cc1)N1CC(C2CCN(C(=O)c3nccs3)CC2)C1 [Cpd 97, 1-(4-Fluorophenyl)-5-({3-[1-(1,3-thiazol-2-ylcarbonyl)piperidin-4-yl]azetidin-1-yl}carbonyl)-1,3-dihydro-2H-benzimidazol-2-one] | – | 34 nM | – | 22.1 nM |
